From patent US20260191998A1, “INDOLE PHTHALOCYANINE COMPOUND, PREPARATION METHOD THEREFOR, AND USE THEREOF IN TUMOR DIAGNOSIS IMAGING” (JIANGSU YAHONG MEDITECH CO., LTD., priority 2022, published 2026)
Counter-ions that a name gives are not always drawn.

Columns and labels:
[1] = tested on: RT112 tumor; conditions: 2 mg/kg or 0.4 mg/kg intraperitoneal, 48 hours after injection
Description: All animal experiments were conducted exactly in accordance with the guidelines for the care and use of animals issued by the regional animal committee. A mouse model of xenograft RT112 tumor was established by subcutaneous injection of RT112 cell suspension (2×10^6 cells/mouse, 0.1 ml PBS) into the upper right limb of 8- to 10-week-old BALB/C female nude mice (20 to 25 g). BABL/c nude mice (15 to 20 g) were purchased from Beijing Vital River Laboratory Animal Technology Co., Ltd. For in vivo near-infrared fluorescence (NIRF) imaging, the RT112 tumor-bearing mice were intraperitoneally injected with different doses of free compounds (2 mg/kg or 0.4 mg/kg), respectively. At 48 hours after injection, near-infrared imaging was performed using an IVIS Lumina spectroscopic imaging system (excitation/emission, 780/845 nm).

[2] = tested on: human bladder cancer cell line UM-UC-3; test: In vitro imaging effect test with addition of BSP, UM-UC-3; format: cell-based; conditions: 250 μM BSP, compound 1-20 μM with surfactin 1:5, 30 minutes
Description: UM-UC-3 (1.5×10^4/well) were cultured in EMEM medium (containing 10% fetal bovine serum (FBS) and 1% antibiotics (100 U/mL penicillin and 100 U/mL streptomycin)) and seeded in a 96-well plate in advance. The plate was cultured in a 5% CO2 cell culture incubator at 37° C. overnight. The following day, the culture medium was sucked away, and 250 μM of BSP was added to the test wells and preconditioned for 10 minutes, followed by addition of the culture medium containing an appropriate concentration (1-20 μM) of the compound and surfactin (the molar ratio of the test compound to the surfactin being 1:5) with or without 250 μM of BSP, and then incubated for 30 minutes. The cells were rinsed three times with PBS solution, and the near-infrared fluorescence intensity in the bladder cancer cells was observed using an integrated fluorescence microscopic imaging system from Keyence. The conditions for near-infrared photography were Ex=775/50 nm and Em=845/55 nm.

[3] = UV-VIS absorption spectra (optical property test); format: physicochemical; conditions: 10 μM, DMSO solution; for Absorbance × 10^4: at maximum absorption peak
Description: The UV-VIS absorption spectra of the compounds (10 μM, DMSO solution) were detected using Shimadzu UV2600 spectrophotometer, and the maximum absorption peak and absorbance of each compound were obtained.

[4] = tested on: RT112 tumor; test: Tumor/background ratio in subcutaneous RT112 tumor model mice; format: in vivo; conditions: 2 mpk intraperitoneal, 48 hours after injection
Text: The subcutaneous tumor model mice inoculated with RT112 tumor were selected. Each compound was administrated at a dose of 2 mpk, and intraperitoneally injected.

[5] = Kinetic solubility in phosphate buffered saline (HPLC); format: physicochemical; conditions: phosphate buffered saline (PBS), aqueous buffer, kinetic from dmso stock, 25° C., shaken 2 hours, from 10 mM DMSO stock
Description: The compounds were weighed in an appropriate amount and dissolved in DMSO to prepare a 10 mM stock solution. 30 μL of the stock solution was taken and 970 μL of phosphate buffered saline solution (PBS) was added thereto. The solution was shaken at 25° C. on a thermostatic mixer for 2 hours, and centrifuged at 12000 rpm for 10 minutes. The supernatant was taken, and the kinetic solubility of each compound in phosphate buffered saline solution (PBS) was determined by Waters Acquity Arc HPLC.

[6] = biological target: hERG channels (Homo sapiens, UniProt Q12809); test: hERG whole-cell patch clamp in HEK 293 cells stably expressing hERG; format: cell-based; conditions: HEK 293 stably expressing hERG, tail current
hERG channels, sequence (Q12809 whole entry): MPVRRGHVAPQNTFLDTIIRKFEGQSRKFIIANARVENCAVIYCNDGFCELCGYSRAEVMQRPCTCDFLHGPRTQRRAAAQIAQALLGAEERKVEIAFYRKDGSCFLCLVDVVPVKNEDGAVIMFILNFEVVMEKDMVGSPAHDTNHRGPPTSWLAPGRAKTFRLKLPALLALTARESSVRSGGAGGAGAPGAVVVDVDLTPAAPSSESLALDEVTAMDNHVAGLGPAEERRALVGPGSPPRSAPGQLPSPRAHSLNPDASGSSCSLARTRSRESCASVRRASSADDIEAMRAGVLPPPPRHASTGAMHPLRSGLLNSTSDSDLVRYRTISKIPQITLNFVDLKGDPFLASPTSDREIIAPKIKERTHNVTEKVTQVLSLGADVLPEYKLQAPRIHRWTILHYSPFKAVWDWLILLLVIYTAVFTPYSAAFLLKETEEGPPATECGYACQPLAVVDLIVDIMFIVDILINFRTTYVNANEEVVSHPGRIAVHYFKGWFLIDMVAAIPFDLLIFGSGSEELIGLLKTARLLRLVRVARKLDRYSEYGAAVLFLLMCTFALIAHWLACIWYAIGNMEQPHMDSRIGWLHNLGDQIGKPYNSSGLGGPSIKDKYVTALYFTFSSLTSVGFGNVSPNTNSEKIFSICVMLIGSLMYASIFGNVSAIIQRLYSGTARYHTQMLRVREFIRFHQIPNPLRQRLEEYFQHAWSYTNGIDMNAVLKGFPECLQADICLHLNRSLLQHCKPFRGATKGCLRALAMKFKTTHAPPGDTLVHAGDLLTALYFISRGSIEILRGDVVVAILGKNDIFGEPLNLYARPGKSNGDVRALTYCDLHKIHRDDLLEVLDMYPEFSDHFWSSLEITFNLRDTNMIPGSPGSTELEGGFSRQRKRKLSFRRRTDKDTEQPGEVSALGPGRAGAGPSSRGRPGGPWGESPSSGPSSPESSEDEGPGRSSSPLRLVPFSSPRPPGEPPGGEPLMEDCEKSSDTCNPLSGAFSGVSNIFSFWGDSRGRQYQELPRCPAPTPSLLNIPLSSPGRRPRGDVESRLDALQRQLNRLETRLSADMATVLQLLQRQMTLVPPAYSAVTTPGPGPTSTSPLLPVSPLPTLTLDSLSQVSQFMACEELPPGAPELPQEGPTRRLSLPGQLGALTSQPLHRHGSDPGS
Description: The HEK 293 cell line (K1236) stably expressing hERG was purchased from Invitrogen. Cells were cultured in 85% DMEM, 10% dialyzed FBS, 0.1 mM NEAA, 25 mM HEPES, 100 U/mL penicillin-streptomycin, 5 μg/mL blasticidin and 400 μg/mL geneticin. Cells were split using TrypLE™ about three times a week, and maintained at a confluence of about 40% to about 80%. Before measurement, cells were cultured at a density of 5×10^5 in a 6 cm culture dish and induced with 1 μg/mL doxycycline for 48 hours.
Extracellular solution (mM): 132 NaCl, 4 KCl, […], 0.5 MgCl2, 11.1 glucose, 10 HEPES (pH 7.35 adjusted with NaOH);
Intercellular solution (mM): 140 KCl, 2 MgCl2, 10 EGTA, 10 HEPES, 5 MgATP (pH 7.35 adjusted with KOH).
The test compounds were formulated in DMSO to prepare a stock solution with a final concentration of 10 mM.
Then, the stock solution of each compound was diluted with DMSO in a 1:3 serial dilution to prepare five intermediate solutions with concentrations of 3, 1, 0.33, 0.12, 0.04 mM or 3.33, 1.11, 0.37, 0.12 mM, respectively.
Before testing, the final working solutions were prepared by diluting the intermediate solutions 1000 times with the extracellular solution. The concentration of DMSO in the working solutions was within a range around 0.1%.
The working solutions at five different concentrations of 3, 1, 0.33, 0.12 and 0.04 μM were used to determine the potential inhibition effect of the compounds on hERG channels and to fit concentration-response curves and calculate IC50.
The coverslip was removed from the cell culture dish and placed on a microscope stage.
A 10× objective was used to locate cells to be observed. An electrode tip was located under the microscope using the 10× objective by focusing above the plane of the cells. Once the tip was in focus, the electrode was advanced downward towards the cells under rough control of the manipulator, while the objective was moved so as to keep the tip in focus.
When the electrode was directly over a cell, the objective was switched to a 40× objective and fine control of the manipulator was used to enable to gradually approach the cell surface.
With gentle suction through a side port of an electrode holder, a giga-ohm seal was formed.
Cfast was used to eliminate the capacitive current consistent with the voltage step. Brief and strong suction was applied repeatedly until the membrane patch ruptured and the whole-cell configuration was obtained.
At this point, membrane potential was set to −60 mV in order to ensure that hERG channels were not open. Then, Cslow on the amplifier was used to remove the spikes of capacitive current.
Holding potential was set to −90 mV for 500 ms. Current was recorded at 20 kHz and filtering was carried out at 10 kHz. Leak current was tested at −80 mV for 500 ms.
The hERG current was elicited by depolarizing at +30 mV for 4.8 seconds, and then the voltage was restored to −50 mV for 5.2 seconds to remove the inactivation and observe the deactivating tail current. The maximum of tail current size was used to determine hERG current amplitude.
Current was recorded for 120 seconds to evaluate the current stability. Only stable cells with recording parameters above thresholds were used for drug administrations.
Firstly, vehicle control was applied to the cells to establish the baseline. […] The hERG current in the presence of the test compound was recorded for about 5 minutes to reach a steady state, and then 5 sweeps were captured. For dose-response testing, multiple compounds were applied to the cells cumulatively from low to high concentrations (multiple compounds were detected simultaneously). The positive control, Dofetilide at a concentration of 150 nM, was also applied to each cell post hERG current measurement at the highest concentration of the test compound, which was used as an internal low control for normalization of percentage inhibition. […]

Row | SMILES | Enrichment at the tumor sites (NIR fluorescence) [1] | Uptake by UM-UC-3 with or without BSP [2] | Absorption peak [3] | Absorbance × 10^4 [3] | Tumor/background ratio [4] | solubility kinetic at 2 h [5] | IC50 [6]
1 | CC[N+]1=C(/C=C/C2=C(Cl)C(=C/C=C3/N(CCOCC(=O)Oc4ccccc4)c4ccccc4C3(C)C)/CCC2)C(C)(C)c2ccccc21 [Example 8, 2-((E)-2-((E)-2-chloro-3-(2-((E)-3,3-dimethyl-1-(2-(2-oxo-2-phenoxyethoxy)ethyl)indolin-2-ylidene)ethenyl)cyclohex-1-en-1-yl)ethenyl)-1-ethyl-3,3-dimethyl-3H-indol-1-ium Trifluoroacetate] | specifically enriched at the tumor sites | may be weakened or enhanced by BSP | 794.5 nm | 1.96 |  |  | 
2 | C[N+]1=C(/C=C/C2=C(Cl)C(=C/C=C3/N(CCCCCC(=O)O)c4ccccc4C3(C)C)/CC2)C(C)(C)c2ccccc21 [Example 10, 2-((E)-2-((E)-3-(2-((E)-1-(5-carboxypentyl)-3,3-dimethylindolin-2-ylidene)ethenyl)-2-chlorocyclopent-1-en-1-yl)ethenyl)-1,3,3-trimethyl-3H-indol-1-ium Chloride] | specifically enriched at the tumor sites | may be weakened or enhanced by BSP | 821 nm | 2.08 | 3.3 | 26 µg/mL | 1.33 µM
3 | CC[N+]1=C(/C=C/C2=C(Cl)C(=C/C=C3/N(CCOCCC(=O)Oc4ccccc4)c4ccccc4C3(C)C)/CCC2)C(C)(C)c2ccccc21 [Example 7, 2-((E)-2-((E)-2-chloro-3-(2-((E)-3,3-dimethyl-1-(2-(3-oxo-3-phenoxypropoxy)ethyl)indolin-2-ylidene)ethenyl)cyclohex-1-en-1-yl)ethenyl)-1-ethyl-3,3-dimethyl-3H-indol-1-ium Trifluoroacetate] | specifically enriched at the tumor sites | may be weakened or enhanced by BSP | 794.5 nm | 1.92 |  |  | 
